This note sets out measurements from BindingDB's records for patent WO2023288264 (Blueprint Medicines, 2023).

The target of the assay is Mitogen-activated protein kinase kinase kinase kinase 1 (Homo sapiens, UniProt Q92918). The experiment in a line: MAP4K1 Biochemical Enzymatic Activity. The method, then: Inhibitors were dissolved in 100% DMSO at a stock concentration of 10 mM. A 100X, 10-point, 4-fold serial dilution of each inhibitor was created in 100% DMSO either manually or on a Hamilton STAR liquid handler, starting at a relevant concentration, usually 1 mM. A volume of 0.130 µL of each concentration was transferred to the relevant wells of a 384-well plate (Greiner 781 201) in duplicate using a TTPLabtech Mosquito nano-litre dispenser. Using a Multidrop Combi, the remaining constituents of the kinase reaction were added to the 130 nL of dosed compound as follows (see table below for final reaction details):Enzyme activity assays at the APPKM for ATP or 1 mM ATP: In each well of a 384-well plate, 0.1 - 15 nM of untreated enzyme was incubated in a total of 13 µL of buffer (100 mM HEPES pH 7.5, 0.015% Brij 35, 10 mM MgCl2, 1mM DTT) with 1.5 µM fluorescent peptide and 20 - 1000 µM ATP, at 25 °C, for 60 - 180 minutes in the presence or absence of a dosed concentration series of compound (1% DMSO final concentration). The kinase reactions were stopped by the addition of 70 µl of Stop buffer (100 mM HEPES pH 7.5, 0.015% Brij 35, 35 mM EDTA and 0.2% of Coating Reagent 3 (Caliper Lifesciences)). The plates were read on a Caliper EZReader 2 as described above.
Chain of Mitogen-activated protein kinase kinase kinase kinase 1 (Q92918 whole entry): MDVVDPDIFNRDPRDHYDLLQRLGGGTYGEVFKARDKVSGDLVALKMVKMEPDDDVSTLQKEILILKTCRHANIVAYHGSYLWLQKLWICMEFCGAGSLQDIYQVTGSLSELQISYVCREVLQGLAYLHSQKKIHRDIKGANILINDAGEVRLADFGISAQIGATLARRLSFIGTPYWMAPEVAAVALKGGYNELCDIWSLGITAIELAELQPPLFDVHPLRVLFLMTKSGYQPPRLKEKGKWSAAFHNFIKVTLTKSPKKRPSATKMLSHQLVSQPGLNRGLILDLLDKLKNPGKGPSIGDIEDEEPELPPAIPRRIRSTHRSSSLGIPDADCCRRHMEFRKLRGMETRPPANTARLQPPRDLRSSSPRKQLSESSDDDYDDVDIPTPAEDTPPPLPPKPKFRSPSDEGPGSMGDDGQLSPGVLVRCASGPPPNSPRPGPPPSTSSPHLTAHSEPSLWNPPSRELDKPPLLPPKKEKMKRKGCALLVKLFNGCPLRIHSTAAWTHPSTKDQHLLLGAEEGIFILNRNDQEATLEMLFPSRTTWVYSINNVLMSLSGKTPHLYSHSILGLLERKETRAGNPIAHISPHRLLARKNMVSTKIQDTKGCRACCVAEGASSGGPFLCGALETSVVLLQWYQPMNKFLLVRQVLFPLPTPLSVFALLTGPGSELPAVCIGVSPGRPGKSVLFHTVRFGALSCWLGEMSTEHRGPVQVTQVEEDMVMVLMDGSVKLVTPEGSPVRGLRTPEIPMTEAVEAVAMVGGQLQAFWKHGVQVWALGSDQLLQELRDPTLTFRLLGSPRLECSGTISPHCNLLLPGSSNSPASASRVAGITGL

Several values for one entry are separate records, joined by “and”; a condition that tells them apart may be missing. Equal entries are not always repeated.

`COc1ncc([C@@H](C)O)c2cc(Nc3ccnc(C(C)(C)F)n3)ncc12` [WO2023288264, Compound 1] gave an IC50 of 121 nM.

Molecule `COc1ncc([C@H](C)O)c2cc(Nc3ccnc(C(C)(C)F)n3)ncc12` [WO2023288264, Compound 2] gave an IC50 of 64 nM.

Molecule `COc1ncc(C(C)(C)O)c2cc(Nc3ccnc(N4CCCC4)n3)ncc12` [WO2023288264, Compound 9] came in with an IC50 of 1.63 nM. This IC50 is about 39-fold lower than that of the molecule before.

For the molecule `COc1ncc([C@@](C)(O)C(F)F)c2cc(Nc3ccnc(C(C)(C)F)n3)ncc12` [WO2023288264, Compound 11], the IC50 was found to be 15 nM.

The molecule `COc1ncc([C@](C)(O)C(F)F)c2cc(Nc3ccnc(C(C)(C)F)n3)ncc12` [WO2023288264, Compound 12] returned an IC50 of 47 nM.

Regarding `CC[C@@H](O)c1cnc(OC)c2cnc(Nc3ccc4c(n3)[C@@H](C)C(C)(C)OC4=O)cc12` [WO2023288264, Compound 14], the IC50 is 0.25 nM and 0.61 nM.

The molecule `CC[C@H](O)c1cnc(OC)c2cnc(Nc3ccc4c(n3)[C@@H](C)C(C)(C)OC4=O)cc12` [WO2023288264, Compound 15] had an IC50 of 3.06 nM.

In turn, `CC[C@@](C)(O)c1cnc(OC)c2cnc(Nc3ccc4c(n3)[C@@H](C)C(C)(C)OC4=O)cc12` [WO2023288264, Compound 17] came in with an IC50 of 0.3 nM.

`COC[C@@H](O)c1cnc(OC)c2cnc(Nc3ccc4c(n3)[C@@H](C)C(C)(C)OC4=O)cc12` [WO2023288264, Compound 18] showed a concentration for half-maximal inhibition (IC50) of 1.65 nM.

In turn, `COC[C@H](O)c1cnc(OC)c2cnc(Nc3ccc4c(n3)[C@@H](C)C(C)(C)OC4=O)cc12` [WO2023288264, Compound 19] showed a half-inhibitory concentration (IC50) of 14 nM.

For `CC[C@](C)(O)c1cnc(NC2CC2)c2cnc(Nc3ccc4c(n3)[C@@H](C)[C@H](C)OC4=O)cc12` [WO2023288264, Compound 20], it took 3.48 nM to reach half-maximal inhibition (IC50).

In the case of `CC[C@@](C)(O)c1cnc(NC2CC2)c2cnc(Nc3ccc4c(n3)[C@@H](C)[C@H](C)OC4=O)cc12` [WO2023288264, Compound 21], the IC50 stood at 1.98 nM. This IC50 lies about 1.8-fold lower than the previous one.

Consider `CCOc1ncc([C@](C)(O)CC)c2cc(Nc3ccc4c(n3)[C@@H](C)C(C)(C)OC4=O)ncc12` [WO2023288264, Compound 23], for which 3.34 nM corresponded to half-maximal inhibition (IC50).

`CCOc1ncc([C@@](C)(O)CC)c2cc(Nc3ccc4c(n3)[C@@H](C)C(C)(C)OC4=O)ncc12` [WO2023288264, Compound 24] yielded an IC50 of 0.39 nM.

In turn, `C[C@@H]1OC(=O)c2ccc(Nc3cc4c([C@@](C)(O)C5CC5)cnc(OC5CC5)c4cn3)nc2[C@H]1C` [WO2023288264, Compound 25] yielded a half-inhibitory concentration (IC50) of 27 nM.

One may read the IC50 as the concentration at which inhibition is half-maximal. Low values mean greater potency in that assay, high ones weaker potency in that assay.
